From PMC11195807, “Development of a multi-targeted chemotherapeutic approach based on G-quadruplex stabilisation and carbonic anhydrase inhibition” (Journal of Enzyme Inhibition and Medicinal Chemistry, 2024)
“And” between values parts separate entries of the source, which are not always exact repeats. Equal entries are not always repeated. Where two headings read alike, the source gives them in different places.

Tests used:
[1] = biological target: T1, hCA IX (Homo sapiens, UniProt Q16790); assay: stopped-flow CO2 hydrase assay, hCA IX; type: biochemical; conditions: for Selectivity index (SI) I/IX: hCA IX over hCA I; for Selectivity index (SI) II/IX: hCA IX over hCA II; for Ki: mean ± SEM of three assays
T1 construct: made in house
Excerpt: An Applied Photophysics stopped-flow instrument has been used for assaying the CA-catalysed CO2 hydration activity, as reported earlier. […] All hCA isoforms were recombinant proteins, being obtained in-house as reported earlier.

[2] = system: Tel23; assay: CD melting experiments, Tel23 GQ; type: binding, human; conditions: for ΔT1/2 Tel23: 2 molar equiv compound, T1/2 of DNA alone 53.5 °C; for ΔΔT1/2 Tel23: ΔT1/2 of compound minus ΔT1/2 of berberine, 2 molar equiv
[3] = system: c-Kit1; assay: CD melting experiments, c-Kit1 GQ; type: binding; conditions: for ΔT1/2 c-Kit1: 2 molar equiv compound, T1/2 of DNA alone 55.0 °C; for ΔΔT1/2 c-Kit1: ΔT1/2 of compound minus ΔT1/2 of berberine, 2 molar equiv
[4] = biological target: T2, hCA I (Homo sapiens, UniProt P00915); assay: stopped-flow CO2 hydrase assay, hCA I; type: biochemical
T2 construct: made in house
T2 sequence (P00915 whole entry): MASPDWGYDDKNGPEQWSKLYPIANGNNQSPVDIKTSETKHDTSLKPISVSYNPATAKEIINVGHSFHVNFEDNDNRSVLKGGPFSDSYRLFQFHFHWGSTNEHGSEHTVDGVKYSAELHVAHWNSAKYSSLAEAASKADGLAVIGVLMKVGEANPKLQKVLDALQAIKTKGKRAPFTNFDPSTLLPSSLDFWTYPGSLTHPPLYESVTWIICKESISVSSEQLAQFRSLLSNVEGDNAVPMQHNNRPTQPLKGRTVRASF
Method: An Applied Photophysics stopped-flow instrument has been used for assaying the CA-catalysed CO2 hydration activity, as reported earlier. The enzyme concentrations were in the range 5–12 nM. All hCA isoforms were recombinant proteins, being obtained in-house as reported earlier.

[5] = system: HeLa cells; assay: MTT assay, HeLa cells in normoxia; type: cell-based; conditions: for IC50: Homo sapiens
Excerpt: Combining the results on carbonic anhydrase inhibition and GQ thermal stabilisation, we selected the sulphonamides S-2,0, S-4,0, S-5,0 and the coumarins C-3,2, C-4,2, C-5,2 as the most promising MTDLs to be further investigated, since able to both efficiently suppress the activity of the hCAs IX/XII and stabilise GQ structures, in vitro. Moreover, given that crystals suitable for X-ray diffraction analyses had been successfully obtained for the human telomeric DNA GQ in complex with S-3,2, we also included such sulphonamide derivative in the subsequent studies. Thus, we assessed the cytotoxicity of the selected MTDLs on CA IX-positive HeLa cells, using the MTT assay.
HeLa cells were grown in Dulbecco’s Modified Eagle’s Medium supplemented with 10% FBS, 100 U/mL penicillin, and 100 μg/mL streptomycin, at 37 °C, in a 5% CO2/95% air atmosphere. Cells were sub-cultured at 90% confluence, in the split ratio 1:8, every 3–5 days. The MTDLs used in this study, as well as the CAIs S and C, were dissolved in DMSO at 40 mM (for the sulphonamides) or 10 mM (for the coumarins) concentration. As for berberine, a 50 mM stock solution in DMSO was prepared. Each tested compound was diluted in cell culture medium to the required concentration, immediately prior to use. As regards the experiments under hypoxic conditions, an 80 mM stock solution of CoCl2 was prepared in sterile distilled water and further diluted in medium to obtain the final desired concentrations.
For the MTT experiments in the presence of normal oxygen levels, HeLa cells were seeded in 96-well plates at a density of 15,000 cells per well (culture medium volume – 100 μL/well) and incubated at 37 °C, for 24 h. The medium was then removed, and HeLa were incubated, for 48 h, with fresh medium containing increasing concentrations of MTDLs, single-target-directed agents (berberine, S, and C) or vehicle (0.5% DMSO). The MTDL C-4,2 was also tested for 12 h. As for the co-treatments, cells were co-treated for 12 h with equimolar concentrations of berberine and C. As regards the MTT experiments under hypoxic conditions, HeLa cells were seeded in 96-well plates (8,000 cells per well) and incubated overnight, pre-treated with 50 μM cobalt (II) chloride hexahydrate (CoCl2) and then, for the following 12 h, either exposed to increasing concentrations of C-4,2 or vehicle (0.5% DMSO), or co-treated with equimolar concentrations of berberine and C. Each condition was assayed in triplicate. At the end of the treatments, 10 µL of MTT reagent were added to each well, at a final concentration of 0.5 mg/mL, and the plates were incubated at 37 °C for 4 h. To dissolve the resulting purple formazan crystals, 100 μL of the solubilisation solution were added into each well and the plates were allowed to stand overnight in the incubator (37 °C, 5% CO2/95% air). Finally, the optical density of the samples (at 570 nm) was measured on an ELx800 Absorbance Microplate Reader (BioTek Instruments, Inc., Winooski, VT, USA). The percentage (%) of cell survival for each condition was calculated by using the following equation: % cell survival=OD− OD0/ODCONTROL− OD0×100 where OD is the optical density of the sample, OD0 is the optical density of the background signal, and ODCONTROL is the optical density of the control sample (cells treated with vehicle, 0.5% DMSO). The concentration able to reduce by 50% the cellular viability (IC50) was calculated, for each investigated compound, using Prism 8.0.2 (GraphPad, San Diego, CA, USA) and plotting the percentage of cell survival versus the compound concentration (µM).

[6] = sulphonamides, inhibitor-enzyme incubation 15 min
[7] = sulphonamides, inhibitor-enzyme incubation 15 min, mean ± SEM of three assays
[8] = 48 h, normoxia, read-out: IC50 (50% of cell viability reduction), MTT assay
[9] = coumarins, inhibitor-enzyme incubation 6 h

| SMILES | Selectivity index (SI) I/IX [1] | Selectivity index (SI) II/IX [1] | Ki [1, 6] | Ki [4, 7] | IC50 [5, 8] | Ki [1, 9] | Ki [4, 9] | ΔT1/2 Tel23 [2] | ΔΔT1/2 Tel23 [2] | ΔT1/2 c-Kit1 [3] | ΔΔT1/2 c-Kit1 [3] | IC50 (50% of cell viability reduction), MTT assay ([5]; 48 h, normoxia) | cytotoxicity compared with co-exposure to equimolar berberine and C ([5]; 12 h, normoxia) | IC50 ([5]; 12 h treatment, normoxia, read-out: IC50, MTT assay) | ΔΔT1/2 c-Kit1 ([3]; listed as S-5,0) | reduction in the percentage of cell survival ([5]; 48 h, concentration up to 200 µM) | ΔΔT1/2 c-Kit1 ([3]; listed as S-4,0) | ΔΔT1/2 c-Kit1 ([3]; listed as S-2,0) |
| --- | --- | --- | --- | --- | --- | --- | --- | --- | --- | --- | --- | --- | --- | --- | --- | --- | --- | --- |
| COc1ccc2cc3[n+](cc2c1OCCCn1cc(COc2ccc4ccc(=O)oc4c2)nn1)CCc1cc2c(cc1-3)OCO2 [Compound 34, 10-Methoxy-9–(3-(4-(((2-oxo-2H-chromen-7-yl)oxy)methyl)-1H-1,2,3-triazol-1-yl)propoxy)-5,6-dihydro-[1,3]dioxolo[4,5-g]isoquinolino[3,2-a]isoquinolin-7-ium hexafluorophosphate] | – | – | – | – | > 50000 nM | 66 ± 4.3 nM | > 100000 nM | 10.5 °C | 1.0 °C | 20.0 °C | 7.0 °C | fell outside the explored range of concentrations | – | – | – | – | – | – |
| COc1ccc2cc3[n+](cc2c1OCCCCn1cc(COc2ccc4ccc(=O)oc4c2)nn1)CCc1cc2c(cc1-3)OCO2 [Compound 37, 10-Methoxy-9–(4-(4-(((2-oxo-2H-chromen-7-yl)oxy)methyl)-1H-1,2,3-triazol-1-yl)butoxy)-5,6-dihydro-[1,3]dioxolo[4,5-g]isoquinolino[3,2-a]isoquinolin-7-ium hexafluorophosphate] | > 578.0 | > 578.0 | – | – | 40000 nM | 17.3 ± 1.2 nM | > 100000 nM | 9.0 °C | −0.5 °C | 17.5 °C | 4.5 °C | – | greater | 46000 nM | – | – | – | – |
| COc1ccc2cc3[n+](cc2c1OCCCCCn1cc(-c2ccc(S(N)(=O)=O)cc2)nn1)CCc1cc2c(cc1-3)OCO2 [Compound 32, 10-Methoxy-9-((5–(4-(4-sulfamoylphenyl)-1H-1,2,3-triazol-1-yl)pentyl)oxy)-5,6-dihydro-[1,3]dioxolo[4,5-g]isoquinolino[3,2-a]isoquinolin-7-ium hexafluorophosphate] | 2390 | 65.8 | 0.24 ± 0.02 nM | 574 ± 35.8 nM | > 200000 nM | – | – | 12.0 °C | 2.5 °C | 19.0 °C | 6.0 °C | fell outside the explored range of concentrations | – | – | ≥ 6.0 °C | around 40% | – | – |
| COc1ccc2cc3[n+](cc2c1OCCCCn1cc(-c2ccc(S(N)(=O)=O)cc2)nn1)CCc1cc2c(cc1-3)OCO2 [Compound 30, 10-Methoxy-9–(4–(4-(4-sulfamoylphenyl)-1H-1,2,3-triazol-1-yl)butoxy)-5,6-dihydro-[1,3]dioxolo[4,5-g]isoquinolino[3,2-a]isoquinolin-7-ium hexafluorophosphate] | 1209 | 112.4 | 0.49 ± 0.03 nM | 592 ± 36.3 nM | 35000 nM | – | – | 9.0 °C | −0.5 °C | 20.5 °C | 7.5 °C | – | – | – | – | – | ≥ 6.0 °C | – |

Further lines, with some results ahead:

| Selectivity index (SI) I/IX [1] | Selectivity index (SI) II/IX [1] | Ki [1, 6] | Ki [4, 7] | IC50 [5, 8] | Ki [1, 9] | Ki [4, 9] | SMILES | ΔT1/2 Tel23 [2] | ΔΔT1/2 Tel23 [2] | ΔT1/2 c-Kit1 [3] | ΔΔT1/2 c-Kit1 [3] | IC50 (50% of cell viability reduction), MTT assay ([5]; 48 h, normoxia) | cytotoxicity compared with co-exposure to equimolar berberine and C ([5]; 12 h, normoxia) | IC50 ([5]; 12 h treatment, normoxia, read-out: IC50, MTT assay) | ΔΔT1/2 c-Kit1 ([3]; listed as S-5,0) | reduction in the percentage of cell survival ([5]; 48 h, concentration up to 200 µM) | ΔΔT1/2 c-Kit1 ([3]; listed as S-4,0) | ΔΔT1/2 c-Kit1 ([3]; listed as S-2,0) |
| --- | --- | --- | --- | --- | --- | --- | --- | --- | --- | --- | --- | --- | --- | --- | --- | --- | --- | --- |
| 1437 | 111.3 | 0.56 ± 0.03 nM | 805 ± 60.8 nM | > 200000 nM | – | – | COc1ccc2cc3[n+](cc2c1OCCCn1cc(COc2ccc(S(N)(=O)=O)cc2)nn1)CCc1cc2c(cc1-3)OCO2 [Compound 29, 10-Methoxy-9–(3-(4-((4-sulfamoylphenoxy)methyl)-1H-1,2,3-triazol-1-yl)propoxy)-5,6-dihydro-[1,3]dioxolo[4,5-g]isoquinolino[3,2-a]isoquinolin-7-ium hexafluorophosphate] | 8.0 °C | −1.5 °C | 16.0 °C | 3.0 °C | fell outside the explored range of concentrations | – | – | – | – | – | – |
| > 205.8 | > 205.8 | – | – | 37500 nM | 48.6 ± 2.6 nM | > 100000 nM | COc1ccc2cc3[n+](cc2c1OCCCCCn1cc(COc2ccc4ccc(=O)oc4c2)nn1)CCc1cc2c(cc1-3)OCO2 [Compound 39, 10-Methoxy-9-((5–(4-(((2-oxo-2H-chromen-7-yl)oxy)methyl)-1H-1,2,3-triazol-1-yl)pentyl)oxy)-5,6-dihydro-[1,3]dioxolo[4,5-g]isoquinolino[3,2-a]isoquinolin-7-ium hexafluorophosphate] | 8.5 °C | −1.0 °C | 20.0 °C | 7.0 °C | – | – | – | – | – | – | – |
| 414.6 | 42.4 | 1.1 nM and 1.4 nM | 581 ± 32.5 nM | > 200000 nM | – | – | COc1ccc2cc3[n+](cc2c1OCCn1cc(-c2ccc(S(N)(=O)=O)cc2)nn1)CCc1cc2c(cc1-3)OCO2 [Compound 26, 10-Methoxy-9–(2-(4–(4-sulfamoylphenyl)-1H-1,2,3-triazol-1-yl)ethoxy)-5,6-dihydro-[1,3]dioxolo[4,5-g]isoquinolino[3,2-a]isoquinolin-7-ium hexafluorophosphate] | 10.0 °C | 0.5 °C | 22.0 °C | 9.0 °C | fell outside the explored range of concentrations | – | – | – | – | – | ≥ 6.0 °C |
